Laboratory results taken from US20250179000A1 (Sanford Burnham Prebys Medical Discovery Institute, priority 2021, published 2025).

Experiments:
Type in all cases: cell-based
Human mGlu2 = Human mGlu2 (Homo sapiens, UniProt Q14416); experiment: mGlu receptor in vitro assay, human mGlu2
Rat mGlu2 = molecular target: T1, Rat mGlu2 (Rattus norvegicus, UniProt P31421); experiment: mGlu receptor in vitro assay, thallium flux through GIRK channels, rat mGlu2; conditions: PAM potency with EC20 glutamate
T1 construct: expressed in transfected cells; host or cells: HEK-293 co-expressing GIRK channels
T1 sequence (P31421 19-872): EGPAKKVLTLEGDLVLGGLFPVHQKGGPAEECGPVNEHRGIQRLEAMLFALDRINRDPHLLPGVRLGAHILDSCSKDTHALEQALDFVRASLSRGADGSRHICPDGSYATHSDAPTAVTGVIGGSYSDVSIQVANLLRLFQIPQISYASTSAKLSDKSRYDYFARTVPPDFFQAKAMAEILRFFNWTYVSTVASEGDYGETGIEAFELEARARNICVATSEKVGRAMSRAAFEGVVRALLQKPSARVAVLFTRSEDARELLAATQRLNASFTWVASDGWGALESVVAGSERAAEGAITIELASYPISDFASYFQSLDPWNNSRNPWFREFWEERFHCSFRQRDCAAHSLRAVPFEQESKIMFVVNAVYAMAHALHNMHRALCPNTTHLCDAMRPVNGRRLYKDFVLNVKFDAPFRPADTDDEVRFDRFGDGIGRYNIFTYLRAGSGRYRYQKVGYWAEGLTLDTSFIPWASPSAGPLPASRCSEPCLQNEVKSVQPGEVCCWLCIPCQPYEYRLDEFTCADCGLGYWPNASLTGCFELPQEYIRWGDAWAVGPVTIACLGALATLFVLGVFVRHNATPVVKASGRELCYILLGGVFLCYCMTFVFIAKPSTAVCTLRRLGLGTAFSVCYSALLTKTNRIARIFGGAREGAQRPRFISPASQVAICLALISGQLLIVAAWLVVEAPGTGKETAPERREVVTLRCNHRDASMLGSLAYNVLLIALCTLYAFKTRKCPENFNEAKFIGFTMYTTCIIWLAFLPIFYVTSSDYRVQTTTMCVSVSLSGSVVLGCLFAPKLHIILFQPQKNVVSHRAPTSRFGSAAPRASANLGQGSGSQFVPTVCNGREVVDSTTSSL
In short: (§1)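 HEK-293 cells co-expressing rat mGlu2 or mGlu3 and GIRK, dye-loaded with FluoZin2-AM, compound added about 2.5 min before thallium buffer with EC20 glutamate; potency from the 5-15 s fluorescence slope, 10-point 4-parameter fit. Calcium assay at mGlu3 used TREx293 mGlu3 Gα15 cells induced with tetracycline 20 ng/mL for 20 h.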

Human mGlu3 = Human mGlu3 (Homo sapiens, UniProt Q14832); experiment: mGlu receptor in vitro assay, human mGlu3
Sequence of Human mGlu3 (Q14832 23-879): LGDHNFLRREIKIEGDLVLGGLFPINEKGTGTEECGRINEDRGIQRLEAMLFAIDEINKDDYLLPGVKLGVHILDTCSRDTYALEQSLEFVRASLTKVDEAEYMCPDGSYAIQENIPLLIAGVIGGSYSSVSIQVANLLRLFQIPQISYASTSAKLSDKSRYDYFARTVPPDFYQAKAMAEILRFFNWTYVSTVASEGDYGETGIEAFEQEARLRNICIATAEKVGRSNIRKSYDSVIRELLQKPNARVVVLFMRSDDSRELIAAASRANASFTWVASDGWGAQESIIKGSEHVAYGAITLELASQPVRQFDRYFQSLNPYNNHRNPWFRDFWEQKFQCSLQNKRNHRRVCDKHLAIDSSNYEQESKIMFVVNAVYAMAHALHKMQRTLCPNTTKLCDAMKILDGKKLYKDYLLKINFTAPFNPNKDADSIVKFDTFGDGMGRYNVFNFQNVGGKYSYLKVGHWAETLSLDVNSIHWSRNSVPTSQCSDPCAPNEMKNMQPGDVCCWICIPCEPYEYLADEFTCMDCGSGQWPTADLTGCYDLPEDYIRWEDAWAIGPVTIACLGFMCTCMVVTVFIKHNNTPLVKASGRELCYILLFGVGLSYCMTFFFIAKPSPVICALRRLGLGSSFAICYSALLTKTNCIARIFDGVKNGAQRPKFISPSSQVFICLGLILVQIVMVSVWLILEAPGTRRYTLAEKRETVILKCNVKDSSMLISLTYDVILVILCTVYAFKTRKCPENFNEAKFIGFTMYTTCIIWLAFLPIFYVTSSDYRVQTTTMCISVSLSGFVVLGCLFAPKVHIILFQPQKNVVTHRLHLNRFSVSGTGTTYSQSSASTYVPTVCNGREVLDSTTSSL

Rat mGlu3 = molecular target: T2, Rat mGlu3 (Rattus norvegicus, UniProt P31422); experiment: mGlu receptor in vitro assay (thallium flux through GIRK channels / calcium assay), rat mGlu3; conditions: PAM potency with EC20 glutamate
T2 construct: expressed in transfected cells; host or cells: HEK-293 co-expressing GIRK channels
T2 sequence (P31422 23-879): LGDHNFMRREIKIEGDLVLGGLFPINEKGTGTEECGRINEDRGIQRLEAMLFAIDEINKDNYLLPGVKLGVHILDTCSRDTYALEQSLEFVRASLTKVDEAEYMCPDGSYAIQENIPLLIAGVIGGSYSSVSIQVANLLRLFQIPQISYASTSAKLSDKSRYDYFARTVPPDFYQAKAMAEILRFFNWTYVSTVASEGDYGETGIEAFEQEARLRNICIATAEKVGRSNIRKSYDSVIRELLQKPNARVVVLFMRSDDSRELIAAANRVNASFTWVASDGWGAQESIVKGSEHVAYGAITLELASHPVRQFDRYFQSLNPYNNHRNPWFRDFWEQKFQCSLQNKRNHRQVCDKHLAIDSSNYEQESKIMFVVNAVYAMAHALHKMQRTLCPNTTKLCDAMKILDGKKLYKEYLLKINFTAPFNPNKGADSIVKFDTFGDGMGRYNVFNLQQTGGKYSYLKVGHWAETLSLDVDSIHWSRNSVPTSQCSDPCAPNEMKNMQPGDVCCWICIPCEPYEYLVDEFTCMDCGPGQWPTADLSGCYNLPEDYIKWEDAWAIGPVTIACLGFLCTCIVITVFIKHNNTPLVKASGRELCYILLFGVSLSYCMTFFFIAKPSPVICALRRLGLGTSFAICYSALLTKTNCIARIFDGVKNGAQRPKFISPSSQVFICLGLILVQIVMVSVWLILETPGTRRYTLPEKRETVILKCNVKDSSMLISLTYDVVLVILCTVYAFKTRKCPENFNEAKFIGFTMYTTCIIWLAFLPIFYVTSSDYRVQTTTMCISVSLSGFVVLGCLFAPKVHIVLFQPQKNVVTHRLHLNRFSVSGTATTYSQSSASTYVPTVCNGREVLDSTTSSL
In short: as §1

Sequence of Human mGlu2 (Q14416 19-872): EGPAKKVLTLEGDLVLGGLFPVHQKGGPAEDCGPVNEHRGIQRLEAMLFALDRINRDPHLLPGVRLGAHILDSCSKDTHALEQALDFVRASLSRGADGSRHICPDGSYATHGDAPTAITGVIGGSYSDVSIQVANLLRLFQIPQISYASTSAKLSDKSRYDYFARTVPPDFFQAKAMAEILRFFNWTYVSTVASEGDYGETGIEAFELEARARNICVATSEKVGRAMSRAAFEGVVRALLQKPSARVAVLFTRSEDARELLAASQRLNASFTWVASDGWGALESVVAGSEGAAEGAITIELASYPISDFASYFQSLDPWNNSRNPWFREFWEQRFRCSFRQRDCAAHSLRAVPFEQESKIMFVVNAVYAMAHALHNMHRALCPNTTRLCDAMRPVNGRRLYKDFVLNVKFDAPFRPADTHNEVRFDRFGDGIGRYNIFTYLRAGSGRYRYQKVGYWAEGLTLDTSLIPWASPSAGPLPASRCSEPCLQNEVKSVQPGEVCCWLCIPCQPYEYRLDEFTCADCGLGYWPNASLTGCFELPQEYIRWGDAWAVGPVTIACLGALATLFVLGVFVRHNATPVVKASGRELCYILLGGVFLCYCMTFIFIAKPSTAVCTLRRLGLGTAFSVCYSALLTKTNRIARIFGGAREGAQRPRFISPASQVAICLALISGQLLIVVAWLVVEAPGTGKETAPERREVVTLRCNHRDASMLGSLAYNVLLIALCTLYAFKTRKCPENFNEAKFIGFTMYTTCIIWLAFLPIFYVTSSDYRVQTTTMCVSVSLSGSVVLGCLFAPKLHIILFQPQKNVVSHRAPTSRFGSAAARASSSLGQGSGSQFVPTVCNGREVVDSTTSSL

SMILES	EC50 (Human mGlu2)	EC50 (Rat mGlu2)	EC50 (Human mGlu3)	EC50 (Rat mGlu3)
COc1ccc(C(=O)O)cc1OCCCCCCOc1ccc(C(=O)CC(C)(C)C)c(O)c1C [Example 19, 3-{6-[4-(3,3-Dimethylbutanoyl)-3-hydroxy-2-methylphenoxy]hexyloxy}-4-methoxybenzoic acid]	0.165 µM	0.288 µM	0.472 µM	0.818 µM
Cc1c(OCC#CCOc2ccc(C(=O)CC(C)(C)C)c(O)c2C)cccc1C(=O)O [Example 22, 3-{4-[4-(3,3-Dimethylbutanoyl)-3-hydroxy-2-methylphenoxy]but-2-ynyloxy}-2-methylbenzoic acid]	0.004 µM	0.016 µM	0.039 µM	0.02 µM
COC(=O)N(CCOc1cc(C(=O)O)ccc1OC)CCOc1ccc(C(=O)CC(C)(C)C)c(O)c1C [Example 24, 3-[2-(N-{2-[4-(3,3-Dimethylbutanoyl)-3-hydroxy-2-methylphenoxy]ethyl}methoxycarbonylamino)ethoxy]-4-methoxybenzoic acid]	0.082 µM	0.176 µM	0.462 µM	0.649 µM
COc1ccc(C(=O)O)cc1OCCNCCOc1ccc(C(=O)CC(C)(C)C)c(O)c1C [Example 26, 3-[2-({2-[4-(3,3-Dimethylbutanoyl)-3-hydroxy-2-methylphenoxy]ethyl}amino)ethoxy]-4-methoxybenzoic acid]	0.156 µM	2.16 µM	1.62 µM	4.09 µM
COc1ccc(C(=O)O)cc1OCCC(C)(C)CCOc1ccc(C(=O)CC(C)(C)C)c(O)c1C [Example 29, 3-{5-[4-(3,3-Dimethylbutanoyl)-3-hydroxy-2-methylphenoxy]-3,3-dimethylpentyloxy}-4-methoxybenzoic acid]	0.147 µM	0.215 µM	0.634 µM	1.03 µM
COc1ccc(C(=O)O)cc1OCCC(C)COc1ccc(C(=O)CC(C)(C)C)c(O)c1C (stereo not shown) [Example 33, 3-{4-[4-(3,3-Dimethylbutanoyl)-3-hydroxy-2-methylphenoxy]-3-methylbutoxy}-4-methoxybenzoic acid]	0.132 µM	0.217 µM	0.195 µM	0.197 µM

Other lines, results leading:

EC50 (Human mGlu2)	EC50 (Rat mGlu2)	EC50 (Human mGlu3)	EC50 (Rat mGlu3)	SMILES
0.045 µM	0.091 µM	0.327 µM	0.491 µM	Cc1c(OCCOCCOc2ccc(C(=O)CC(C)(C)C)c(O)c2C)cccc1C(=O)O [Example 23, 3-(2-{2-[4-(3,3-Dimethylbutanoyl)-3-hydroxy-2-methylphenoxy]ethoxy}ethoxy)-2-methylbenzoic acid]
0.06 µM	0.137 µM	0.311 µM	0.578 µM	Cc1c(OCCSCCOc2ccc(C(=O)CC(C)(C)C)c(O)c2C)cccc1C(=O)O [Example 25]
0.055 µM	0.265 µM	> 10 µM	> 10 µM	CCCC(=O)c1ccc(OCCC(C)(C)CCOc2cccc(C(=O)O)c2C)c(C)c1O [Example 30, 3-[5-(4-Butanoyl-3-hydroxy-2-methylphenoxy)-3,3-dimethylpentyloxy]-2-methylbenzoic acid]
0.066 µM	0.174 µM	> 10 µM	> 10 µM	[2H]C([2H])(CCCC([2H])([2H])Oc1ccc(C(=O)CCC)c(O)c1C)Oc1cccc(C(=O)O)c1C [Example 35]
0.014 µM	0.089 µM	> 30 µM	> 30 µM	CCCC(=O)c1ccc(OCC2(COc3cccc(C(=O)O)c3C)CC2)c(C)c1O [Example 36, 3-({[(4-Butanoyl-3-hydroxy-2-methylphenoxy)methyl]cyclopropyl}methoxy)-2-methylbenzoic acid]
0.008 µM	0.015 µM	0.886 µM	1 µM	CCCC(=O)c1ccc(OCCOCCOc2ccc(C(=O)O)c(Cl)c2)c(C)c1O [Example 41, 4-{2-[2-(4-Butanoyl-3-hydroxy-2-methylphenoxy)ethoxy]ethoxy}-2-chlorobenzoic acid]
0.028 µM	0.027 µM	0.371 µM	0.552 µM	CCCC(=O)c1ccc(OCCSCCOc2ccc(C(=O)O)c(Cl)c2)c(C)c1O [Example 42]
